“Also recorded” adds a separate entry of the source.
Assays:
DNA = conditions: pro-oxidant potential; cited from earlier work
aortic rings = assay: Rat aortic thoracic rings: acetylcholine relaxation after phenylephrine contraction, 4-week oral treatment; format: in vivo, alloxan-diabetic male Wistar rats; conditions: chronic oral administration, acetylcholine 10^-7 M, FIG. 3
Description: Male Wistar rats, weighing between 230-250 g, fed regular chow, with free access to water were separated in four groups (n=10/each). The first two groups, termed normoglycemic, were treated with saline (0.1 mL/100 g/12 h) by the oral route (intragastric gavage) or untreated for four weeks. The second two groups, hyperglycemic, were treated with saline (0.1 mL/100 g/12 h) or treated with D-chiro-inositol (20 mg/kg/12 h) under the same protocol. […] Diabetes was induced by a single intravenous injection of 45 mg/kg alloxan as described by Sannomiya et al., 1997 ( ). Diabetes was diagnosed 96 h after injection by blood glucose assay >200 mg/dL. All protocols were approved by the local committee and follow the Guide for the Care and Use of Laboratory Animals published by the US National Institutes of Health (NIH Publication No. 85-23, revised 1996). After completion of blood pressure measurements and vascular mesenteric bed collection, animals were sacrificed by exsanguination while under anesthesia. The thoracic aorta was excised and rapidly cleansed of connective tissue in Petri dishes containing warmed and gassed (95% O2 in 5% CO2) Krebs-Henseleit solution (KHS). The aorta segment was cut in small rings (≈5 mm) and mounted horizontally in 5 mL chambers for isometric recording of tension. The resting tension was adjusted to 1 g and the tissue allowed to equilibrate for 1 hour with a 15 min washout period. Tissues were kept in KHS at 37° C., gassed with the O2, CO2 mixture and isometric recordings made with a force displacement transducer connected to a four-channel polygraph (Narco Biosystems, Houston, Tex., USA). After the equilibration period, tissues were contracted with a submaximal concentration of phenylephrine (≈60% maximal response) until two similar responses were obtained in order to ensure reproducibility of the contraction curves. […] The acetylcholine dose response curve was repeated after a 60 min washout interval. All experiments were performed in the presence of indomethecin (10 μM) and guanethidine (10 μM) to prevent the production of vasoactive prostanoids. At least 6 separate experiments will be performed each in duplicate.

penile corpus cavernosus = assay: Rabbit penile corpus cavernosus: relaxation to electrical field stimulation after 60 min incubation; design: species or system low dose alloxan-diabetic rabbit; conditions: 1 μM, EFS 2-16 Hz, FIG. 8
Description: Male California rabbits, weighing 2-2.5 kg, were provided by the vivarium of the Biomedicine Institute-UFC. Diabetes was induced by intraperitoneal injection of alloxan (150 mg/kg) and only animals with plasma glucose concentration above 200 mg/dl were included in the study. Age-matched euglycemic rabbits were used as controls.
Kidneys and aortic rings were harvested from diabetic rabbits after 3 weeks of alloxan injection. The animals were sacrificed under sodium pentobarbital anesthesia (Hypnol®, 150-200 mg/kg). […]. Rabbit kidneys were obtained from male New Zealand rabbits (1-1.5 kg) after cannulation of the renal artery in situ. [Thereafter the organ is rapidly perfused with warm KHS at 37° C., pH 7.4 and gassed with 95% O2 in 5% CO2 in an open system with a constant flow adjusted to yield 1 mL/g/min and maintained by a peristaltic pump. The alterations in perfusion pressure are continuously recorded in a four-channel polygraph (Narco Biosystems, Houston, Tex., USA) by means of a pressure transducer (P23 Gould Stratham, Oxnard, Calif., USA). After a 30 minute equilibration period, phenylephrine (1 to 5 μM) is infused by means of an infusion pump at a constant rate (0.1 ml/min) in order to achieve a stable perfusion pressure (100-120 mm Hg). Concentration-response curves are performed to the vasodilators, i.e. acetylcholine (Ach; 10^-9 to 10^-3 M). Drugs are injected as a 50 μL bolus, previously shown not to effect perfusion pressure in an arm side just above the cannula in the renal artery.] Following penectomy, the corpus cavernosum was dissected in Krebs solution and cleared of the tunica albuginea and surrounding tissues. Strips (2 cm) were mounted vertically in isometric baths (5 mL) in Krebs-Henseleit solution (37° C., pH 7.4 gassed with 95% O2 in 5% CO2) enriched with indomethecin (10 μM) and guanethedine (10 μM) in order to avoid prostanoid or neuronal norandrenergic interaction. After a 60 minute period for stabilization, tissues were precontracted with 10 μM phenylephrine in order to increase the basal tonus. Thereafter, frequency response curves to transmural electrical field stimulations (EFS—square wave pulses: 10 s train; 20 V, 0.5 ms, 2-16 Hz) were performed until two stable reproducible curves were attained. Then, frequency response curves were repeated after 60 min incubation with saline or 1 μM pinitol, DCI or db-DCI in the alloxan-diabetic rabbits. They are perfused with KHS containing 1 μM D-chiro-inositol, pinitol, dibutyryl D-chiro-inositol, myo-inositol or saline for 60 min. Dose response curves for acetylcholine are then performed following prior phenylephrine vasoconstriction as described. At least 6 separate experiments were performed each in duplicate.

vascular mesenteric bed = assay: Rat arteriolar mesenteric bed: acetylcholine-evoked decrease in perfusion pressure after 4-week oral treatment; format: in vivo, alloxan-diabetic male Wistar rats; conditions: chronic (4-week) oral administration, highest acetyl choline concentrations, FIG. 4
Description: Male Wistar rats, weighing between 230-250 g, fed regular chow, with free access to water were separated in four groups (n=10/each). The first two groups, termed normoglycemic, were treated with saline (0.1 mL/100 g/12 h) by the oral route (intragastric gavage) or untreated for four weeks. The second two groups, hyperglycemic, were treated with saline (0.1 mL/100 g/12 h) or treated with D-chiro-inositol (20 mg/kg/12 h) under the same protocol. […] Diabetes was induced by a single intravenous injection of 45 mg/kg alloxan as described by Sannomiya et al., 1997 ( ). Diabetes was diagnosed 96 h after injection by blood glucose assay >200 mg/dL. All protocols were approved by the local committee and follow the Guide for the Care and Use of Laboratory Animals published by the US National Institutes of Health (NIH Publication No. 85-23, revised 1996).
The mesentery was carefully removed by cutting close to the intestinal border with a small scissors. […] The vascular bed was rapidly perfused with warm KHS (37° C.; pH 7.4; gassed with 95% O2 in 5% CO2) in an open system with a constant flow of 4 ml/min maintained with a peristaltic pump. Alterations in perfusion pressure were continuously recorded in a four-channel polygraph (Narco Biosystems, Houston, Tex., USA) by means of a pressure transducer (P23 Gould Stratham, Oxnard, Calif., USA). After a 30 minute equilibration period, phenylephrine (1 to 5 μM) was infused by means of an infusion pump at a constant rate (0.1 ml/min) in order to achieve a stable perfusion pressure (100-120 mm Hg). Dose response curves were performed with vasodilators, i.e. acetylcholine (Ach; 10^-9 to 10^-3 M). Drugs were injected as 50 μL boluses, previously shown not to effect perfusion pressure in a side arm just above the cannula in the mesenteric artery. At least 6 separate experiments were performed each in duplicate.

[1] = tested on: ROS generated by xanthine/xanthine oxidase; assay: Superoxide assay in vitro: xanthine/xanthine oxidase, NBT reduction; format: biochemical; conditions: low micromolar concentrations, FIG. 10
Description: Superoxide radicals were generated by the reaction of xanthine (1 mM) and xanthine oxidase ([…]) in air-saturated potassium phosphate buffer (pH 7.8 at 25° C.). Superoxide anions were detected by nitroblue tetrazolium (NBT—50 μM) which undergoes reduction by O2-. to its formazan. The rate of reduction was monitored spectrophotometrically at 560 nm with an Ultrospec 1000 (Pharmacia Biotech, Cambridge, England). SOD-1, by scavanging O2-. Diminishes the rate of reduction of NBT. The volume was fixed at 2 mL. Each experiment was run in duplicate.

[2] = tested on: human erythrocytes and human cataractous lenses; conditions: cited from earlier work

Compound | oxidative DNA damage (DNA) | effect on macrovascular endothelial dysfunction at intermediate acetylcholine concentration (aortic rings) | effect on microvascular endothelial dysfunction (vascular mesenteric bed) | reduction of ROS generated by xanthine/xanthine oxidase [1] | also measured
Vitamin A | cause oxidative DNA damage | – | – | – | –
O=P(O)(O)O[C@H]1[C@H](OP(=O)(O)O)[C@@H](OP(=O)(O)O)[C@H](OP(=O)(O)O)[C@@H](OP(=O)(O)O)[C@H]1OP(=O)(O)O [Phytic acid, Myoinositol hexaphosphate] | does not cause oxidative DNA damage even at high concentrations | – | – | – | –
CO[C@H]1[C@H](O)[C@@H](O)[C@@H](O)[C@H](O)[C@@H]1O [pinitol] | – | followed by DCI, pinitol and myoinositol in descending order of effect; also recorded: active at intermediate acetyl choline concentrations | approximately equally effective | equally effective; also recorded: reduced ROS in a low micromolar concentration dependant manner | restoration of vasorelaxant effect of electrical stimulation of the pudendal nerve (penile corpus cavernosus): restoration of vasorelaxant effect
CC(=O)N[C@@H](CS)C(=O)O [N-acetylcysteine] | cause oxidative DNA damage | – | – | – | –
O[C@H]1[C@H](O)[C@@H](O)[C@H](O)[C@@H](O)[C@H]1O [myoinositol, reference compound] | – | followed by DCI, pinitol and myoinositol in descending order of effect | perhaps slightly better than pinitol and DCI | reduced ROS in a low micromolar concentration dependant manner | effect on macrovascular endothelial dysfunction at intermediate acetylcholine concentration (aortic rings; listed as myo-inositol): active at intermediate acetyl choline concentrations; effect on microvascular endothelial dysfunction (vascular mesenteric bed; listed as myo-inositol): perhaps slightly better than pinitol and D-chiro-inositol; peroxidation effect of hydrogen peroxide [2]: decrease the peroxidation effect of hydrogen peroxide; reduction of ROS generated by xanthine/xanthine oxidase ([1]; listed as myo-inositol): equally effective
O=c1c(O)c(-c2ccc(O)c(O)c2)oc2cc(O)cc(O)c12 [quercetin] | cause oxidative DNA damage | – | – | – | –
